Experiments:
[1] = test system: islets from both wild type and β3−/− mice; test: glucose-induced [Ca2+]i oscillations in islets/β-cells (fura-2 340/380 nm fluorescence ratio); format: cell-based, mouse
Description: Changes in [Ca^2+]i were next evaluated. […] The changes in [Ca^2+]i subsequent to the initial increase were categorized into three groups: slow oscillations (period of approximately 160 seconds), fast oscillations (period of approximately 10 seconds) and no oscillations. In wild type mice, 43 recordings (43 islets) were made.

[2] = test system: islets from both β3−/− and wild type mice; test: carbamylcholine-induced activation of PLC, [Ca2+]i in islets; format: cell-based, mouse
Description: (§1) The whole-cell configuration of the patch-clamp technique was performed as follows: pipettes were pulled from borosilicate glass, coated with Sylgard near the tips and fire-polished. The pipettes ([…]) were filled with a solution containing 150 mM N-methyl-D-glucamine, 125 mM HCl, 1.2 mM MgCl2, 10 mM EGTA, 5 mM HEPES and 3 mM MgATP. pH was adjusted to 7.15 with KOH. Bath buffer contained (in mM) NaCl 138, KCl 5.6, MgCl2 1.2, CaCl2 10, HEPES 5 and pH 7.4. Islets or isolated cells were loaded with 2 μM fura 2/AM for 30 min in KRBB. For measurements of CCh (carbamylcholine) effects in Ca^2+-free medium, KRBB containing no Ca^2+ and 100 μM EGTA was used. After loading, a single islet or cells attached to a coverslip were transferred to an open perfusion chamber and maintained at 37° C. Measurements of 340/380 nm fluorescence ratio, reflecting [Ca^2+]i, were done as described in the art (Zaitsev, S. V. et al. 1995, Proc. Natl. Acad. Sci. USA 92:9712-9716). Time constant of decay in [Ca^2+]i was calculated with a double exponential decay equation using quasi Newton algorithm (Statistica for Windows, v. 5.0, StatSoft, Inc., USA). For measurements of [Ca^2+]ER, the low affinity Ca^2+-sensitive fluorescent dye X-Rhod-5N (Molecular Probes) was employed. […] were incubated with 5 μM X-Rhod-5N/AM for 1 hour at 4° C. to ensure dye loading into intracellular compartments. […]

[3] = test system: islets from β3−/− mice compared to wild type mice; test: increase in [Ca2+]i on addition of 2.5 mM extracellular Ca2+ after depletion of the Ca2+-pool; format: cell-based, mouse; settings: 2 μM; Ca2+-pool depleted
Description: as §1

[4] = test system: islets from control and β3−/− mice; test: insulin release in response to glucose from isolated islets; format: cell-based, mouse; settings: islets treated with thapsigargin
Description: Islets of Langerhans were isolated by collagenase digestion and maintained overnight in RPMI 1640 culture medium (Flow Laboratories, UK). Single cells, obtained by shaking the islets in Ca^2+-free medium, were seeded into plastic dishes. For measurements of insulin release, islets were pre-incubated in Krebs-Ringer bicarbonate buffer (KRBB) for 30 min at 37° C. Groups of 3 islets were transferred to tubes containing 0.3 ml KRBB with test substances and incubated for another 30 min at 37° C. The incubation was terminated by cooling the samples on ice. Samples were stored at −20° C. until insulin was analyzed.
To further verify this notion, changes in [Ca^2+]i and insulin exocytosis were measured simultaneously, applying a depolarizing pulse protocol mimicking an oscillatory versus a monophasic increase in [Ca^2+]i.

[5] = test system: islets from both wild type and β3−/− mice; settings: treatment of β-cells; Roe et al. 1998; cited from earlier work

With NCCOB(c1ccccc1)c1ccccc1 [2-APB, 2-aminoethoxydiphenyl borane] the “effect on [Ca2+]i oscillations (blocking the InsP3-receptor)” value ([1]; β-cells from β3−/− mice) was “transformed [Ca^2+]i oscillations from fast into slow”.
With C[N+](C)(C)CCOC(N)=O.[Cl-] [Carbamylcholine, carbamylcholine] the “effect on [Ca2+]i” value [2] was “produced a transient increase in [Ca^2+]i”.
In the case of [Gd] [gadolinium], the “effect on the increase in [Ca2+]i after addition of 2.5 mM extracellular Ca2+” value [3] is reported as “did not affect”.
For C/C=C(/C)C(=O)O[C@H]1C(C)=C2[C@H]([C@@H]1OC(=O)CCCCCCC)[C@@](C)(OC(C)=O)C[C@H](OC(=O)CCC)[C@@]1(O)[C@H]2OC(=O)[C@@]1(C)O [thapsigargin], the “insulin release in response to glucose, control versus β3−/− mice” value [4] is listed as “no different”, the “effect on [Ca2+]i oscillations” value [5] is listed as “transform [Ca^2+]i oscillations into a monophasic elevation in [Ca^2+]i” and the “effect on glucose-induced oscillations in [Ca2+]i” value ([1]; 1 μM, 30 min preincubation, islets from both wild type and β3−/− mice) is listed as “prevented glucose-induced oscillations in [Ca^2+]i”.

— patent publication US8021853B2, “Inhibition of the β3 subunit of L-type Ca2+ channels” (priority 2002, dated 2011)
